Test results: patent US20070021359A1, “Addition salts of azithromycin and citric acid and process for preparing them” (priority 2003, published 2007)

Legend:
[1] = cited from earlier work
[2] = cited from earlier work; remark: listed apart in the source
[3] = solubility in water / aqueous solutions; format: physicochemical; settings: aqueous solution, ambient temperature
Description: The azithromycin citrate of the invention provides aqueous solutions up to 65% (w/w) at ambient temperature, with a pH between 6.8 and 7.5. The new addition salts of azithromycin and citric acid of the invention are particularly useful in the preparation of aqueous or water-alcohol solutions of azitromycin containing up to 65% of the salt, providing a pH between 4 and 8, stable and not suffering from chemical degradation of azithromycin.

Row | concentration of aqueous solutions provided [3] | Molecule | solubility in water [1] | stability in aqueous acid medium [2]
1 | – | CC[C@H]1OC(=O)[C@H](C)[C@@H](O[C@H]2C[C@@](C)(OC)[C@@H](O)[C@H](C)O2)[C@H](C)[C@@H](O[C@@H]2O[C@H](C)C[C@H](N(C)C)[C@H]2O)[C@](C)(O)C[C@@H](C)CN(C)[C@H](C)[C@@H](O)[C@]1(C)O [azithromycin, 9-deoxo-9a-aza-9a-methyl-9a-homoerythromycin A] | very insoluble | not stable
2 | up to 65 % (w/w) | azithromycin citrate | – | –
